Laboratory results published in patent US11542255B2, “Sulfonylureas and sulfonylthioureas as NLRP3 inhibitors” (Inflazome Limited, priority 2017, dated 2023).
Structures can show the parent of a compound that is named as a salt.

Key:
NLRP3 [1] = target: T1, NLRP3 (Homo sapiens, UniProt Q96P20); test: THP-1 cells pyroptosis assay (LPS + nigericin, resazurin readout); assay type: cell-based; set-up: Seed THP-1 cells (25,000 cells/well) containing 1.0 μg/ml LPS in 40 μl of RPMI medium; host or cells: THP-1 cells; details: NLRP3 inhibitory activity, 1.0 μg/ml LPS, 5 μM nigericin
T1 sequence (Q96P20 whole entry): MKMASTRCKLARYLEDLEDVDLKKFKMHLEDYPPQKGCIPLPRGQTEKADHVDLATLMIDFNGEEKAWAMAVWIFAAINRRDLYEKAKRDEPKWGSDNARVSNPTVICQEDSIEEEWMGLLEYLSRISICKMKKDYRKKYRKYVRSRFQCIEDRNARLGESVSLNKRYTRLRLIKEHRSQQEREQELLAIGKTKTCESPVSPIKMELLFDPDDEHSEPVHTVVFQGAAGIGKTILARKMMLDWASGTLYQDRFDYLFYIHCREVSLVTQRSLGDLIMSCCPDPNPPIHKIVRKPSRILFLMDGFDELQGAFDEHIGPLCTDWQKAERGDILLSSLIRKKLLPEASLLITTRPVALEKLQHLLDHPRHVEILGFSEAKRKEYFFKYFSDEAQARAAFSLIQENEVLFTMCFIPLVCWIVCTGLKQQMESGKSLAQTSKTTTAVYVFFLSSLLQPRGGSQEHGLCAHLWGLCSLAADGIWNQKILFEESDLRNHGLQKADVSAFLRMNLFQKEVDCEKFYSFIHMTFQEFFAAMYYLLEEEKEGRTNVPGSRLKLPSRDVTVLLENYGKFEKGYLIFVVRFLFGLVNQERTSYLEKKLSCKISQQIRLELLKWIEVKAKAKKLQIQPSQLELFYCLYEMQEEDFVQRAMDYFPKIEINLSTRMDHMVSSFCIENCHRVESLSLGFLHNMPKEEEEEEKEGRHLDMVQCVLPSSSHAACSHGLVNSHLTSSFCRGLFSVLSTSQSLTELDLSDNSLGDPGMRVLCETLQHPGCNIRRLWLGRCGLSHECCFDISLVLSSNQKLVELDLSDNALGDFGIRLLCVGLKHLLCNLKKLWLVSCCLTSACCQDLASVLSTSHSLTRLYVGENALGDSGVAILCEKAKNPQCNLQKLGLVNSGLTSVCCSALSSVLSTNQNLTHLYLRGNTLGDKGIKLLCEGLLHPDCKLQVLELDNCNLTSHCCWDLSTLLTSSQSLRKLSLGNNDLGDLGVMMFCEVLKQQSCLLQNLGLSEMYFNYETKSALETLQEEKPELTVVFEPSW
How it was run: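 LPS-primed (1 μg/ml) THP-1 cells, 25,000/well in serum-free RPMI, given compound (8-point half-log, 10 μM top; 0.1% DMSO) for 3 h at 37 °C, then nigericin 5 μM for 1 h. Viability by resazurin (100 μM, 1-2 h), Ex 560/Em 590 nm; IC50 from 4-parameter variable-slope fit.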

NLRP3 [2] = target: T1, NLRP3; test: Human whole blood IL1β release assay (LPS + nigericin, AlphaLisa IL-1β); assay type: cell-based; set-up: Human whole blood in Li-heparin tubes was obtained from healthy donors from a volunteer donor panel; from tissue; host or cells: human whole blood from healthy donors; details: NLRP3 inhibitory activity, 1 μg/ml LPS, 10 μM nigericin, IL-1β release, read-out: HWB IC50
How it was run: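 Donor human whole blood (Li-heparin) was primed with 1 μg/mL LPS while incubated with compound (8-point half-log, 10 μM top, 0.1% DMSO) for 3 h at 37° C., then stimulated with 10 μM nigericin for 1 h. Supernatant IL-1β measured by AlphaLISA; IC50 from 4-parameter nonlinear fit.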

SMILES	IC50 (NLRP3 [1])	IC50 (NLRP3 [2])
Cn1nc(S(=O)(=O)NC(=O)Nc2c3c(cc4c2CCC4)CCC3)cc1CN1CC(F)C1 [Example 80, 5-((3-Fluoroazetidin-1-yl)methyl)-N-((1,2,3,5,6,7-hexahydro-s-indacen-4-yl)carbamoyl)-1-methyl-1H-pyrazole-3-sulfonamide]	160 to 640 nM	1600 to 3200 nM
CC(C)c1cc(F)cc(C(C)C)c1NC(=O)NS(=O)(=O)c1cc(CN2CCCC2)n(C)n1 [Example 81, N-((4-Fluoro-2,6-diisopropylphenyl)carbamoyl)-1-methyl-5-(pyrrolidin-1-ylmethyl)-1H-pyrazole-3-sulfonamide]	160 to 640 nM	< 400 nM
CCN(CC)Cc1cc(S(=O)(=O)NC(=O)Nc2c3c(cc4c2CCC4)CCC3)nn1C [Example 82, 5-((Diethylamino)methyl)-N-((1,2,3,5,6,7-hexahydro-s-indacen-4-yl)carbamoyl)-1-methyl-1H-pyrazole-3-sulfonamide, Sodium Salt]	40 to 160 nM	800 to 1600 nM
CCN(CC)Cc1cc(S(=O)(=O)NC(=O)Nc2c(C(C)C)cc(F)cc2C(C)C)nn1C [Example 83, 5-((Diethylamino)methyl)-N-((4-fluoro-2,6-diisopropylphenyl)carbamoyl)-1-methyl-1H-pyrazole-3-sulfonamide, sodium Salt]	640 to 2560 nM	400 to 800 nM
CC(C)c1cc(F)cc(C(C)C)c1NC(=O)NS(=O)(=O)c1cc(CN(C)C(C)C)n(C)n1 [Example 90, N-((4-Fluoro-2,6-diisopropylphenyl)carbamoyl)-5-((isopropyl(methyl)amino)methyl)-1-methyl-1H-pyrazole-3-sulfonamide, sodium Salt]	160 to 640 nM	< 400 nM
CN(C)C(c1cc(S(=O)(=O)NC(=O)Nc2c3c(cc4c2CCC4)CCC3)nn1C)C(F)(F)F (stereo not drawn) [Example 95, 5-(˜(Dimethylamino)-2,2,2-trifluoroethyl)-N-((1,2,3,5,6,7-hexahydro-s-indacen-4-yl)carbamoyl)-1-methyl-1H-pyrazole-3-sulfonamide]	< 40 nM	800 to 1600 nM
CC(C)n1nc(S(=O)(=O)NC(=O)Nc2c3c(cc4c2CCC4)CCC3)cc1CN(C)CC(F)(F)F [Example 96, N-((1,2,3,5,6,7-Hexahydro-s-indacen-4-yl)carbamoyl)-1-isopropyl-5-((methyl(2,2,2-trifluoroethyl)amino)methyl)-1H-pyrazole-3-sulfonamide]	40 to 160 nM	3200 to 10000 nM
COCCN(CCO)C(=O)c1cc(S(=O)(=O)NC(=O)Nc2c3c(cc4c2CCC4)CCC3)nn1C [Example 102, 3-(N-((1,2,3,5,6,7-Hexahydro-s-indacen-4-yl)carbamoyl)sulfamoyl)-N-(2-hydroxyethyl)-N-(2-methoxyethyl)-1-methyl-1H-pyrazole-5-carboxamide, Partial ammonium Salt]	40 to 160 nM	400 to 800 nM
CN(C)C1(c2cc(S(=O)(=O)NC(=O)Nc3c4c(cc5c3CCC5)CCC4)nn2C)COC1 [Example 115, 5-(3-(Dimethylamino)oxetan-3-yl)-N-((1,2,3,5,6,7-hexahydro-s-indacen-4-yl)carbamoyl)-1-methyl-1H-pyrazole-3-sulfonamide]	160 to 640 nM	800 to 1600 nM
CC(C)c1cc(F)cc(C(C)C)c1NC(=O)NS(=O)(=O)c1cc(CN(C)CCO)n(C)n1 [Example 116, N-((4-Fluoro-2,6-diisopropylphenyl)carbamoyl)-5-(((2-hydroxyethyl)(methyl)amino)methyl)-1-methyl-1H-pyrazole-3-sulfonamide]	160 to 640 nM	< 400 nM
CN(CCO)Cc1cc(S(=O)(=O)NC(=O)Nc2c3c(cc4c2CCC4)CCC3)nn1C [Example 117, N-((1,2,3,5,6,7-Hexahydro-s-indacen-4-yl)carbamoyl)-5-(((2-hydroxyethyl)(methyl)amino)methyl)-1-methyl-1H-pyrazole-3-sulfonamide]	40 to 160 nM	< 400 nM
COCCN(C)Cc1cc(S(=O)(=O)NC(=O)Nc2c3c(cc4c2CCC4)CCC3)nn1C [Example 119, N-((1,2,3,5,6,7-Hexahydro-s-indacen-4-yl)carbamoyl)-5-(((2-methoxyethyl)(methyl)amino)methyl)-1-methyl-1H-pyrazole-3-sulfonamide, Sodium Salt]	160 to 640 nM	1600 to 3200 nM
CC(C)c1cc(F)cc(C2CCOCC2)c1NC(=O)NS(=O)(=O)c1cc(C(=O)N(C)C)n(C)n1 [Example 126, 3-(N-((4-Fluoro-2-isopropyl-6-(tetrahydro-2H-pyran-4-yl)phenyl)carbamoyl)sulfamoyl)-N,N,1-trimethyl-1H-pyrazole-5-carboxamide, Sodium Salt]	640 to 2560 nM	400 to 800 nM
CC(C)c1cc(F)cc(-c2cnn(C)c2)c1NC(=O)NS(=O)(=O)c1cc(C(=O)N(C)C)n(C)n1 [Example 128, 3-(N-((4-Fluoro-2-isopropyl-6-(1-methyl-1H-pyrazol-4-yl)phenyl)carbamoyl)sulfamoyl)-N,N,1-trimethyl-1H-pyrazole-5-carboxamide, Sodium Salt]	640 to 2560 nM	< 400 nM
CC(C)c1cc(F)cc(-c2cccnc2)c1NC(=O)NS(=O)(=O)c1cc(C(=O)N(C)C)n(C)n1 [Example 134, 3-(N-((4-Fluoro-2-isopropyl-6-(pyridin-3-yl)phenyl)carbamoyl)sulfamoyl)-N,N,1-trimethyl-1H-pyrazole-5-carboxamide, sodium Salt]	40 to 160 nM	< 400 nM
CC(C)c1cc(F)cc(-c2cncnc2)c1NC(=O)NS(=O)(=O)c1cc(C(=O)N(C)C)n(C)n1 [Example 135, 3-(N-((4-Fluoro-2-isopropyl-6-(pyrimidin-5-yl)phenyl)carbamoyl)sulfamoyl)-N,N,1-trimethyl-1H-pyrazole-5-carboxamide, sodium Salt]	160 to 640 nM	< 400 nM
CCn1nc(S(=O)(=O)NC(=O)Nc2c(-c3cccc(C#N)c3)ccc3c2CCC3)cc1CN(C)C [Example 173]	40 to 160 nM	400 to 800 nM
COCCN(CCOC)C(=O)c1cc(S(=O)(=O)NC(=O)Nc2c(-c3ccnc(OC(C)C)c3)cc(F)cc2C(C)C)nn1C [Example 174, 3-(N-((4-Fluoro-2-(2-isopropoxypyridin-4-yl)-6-isopropyl-phenyl)carbamoyl)sulfamoyl)-N,N-bis(2-methoxyethyl)-1-methyl-1H-pyrazole-5-carboxamide, sodium salt]	2560 to 10000 nM	3200 to 10000 nM
COCCN(CCOC)C(=O)c1cc(S(=O)(=O)NC(=O)Nc2c(-c3ccnc(OC)c3)ccc3c2CCC3)nn1C [Example 175, N,N-Bis(2-methoxyethyl)-3-(N-((5-(2-methoxypyridin-4-yl)-2,3-dihydro-1H-inden-4-yl)carbamoyl)sulfamoyl)-1-methyl-1H-pyrazole-5-carboxamide, Sodium Salt]	160 to 640 nM	< 400 nM
CC(C)Oc1cc(-c2cc(F)cc(C(C)C)c2NC(=O)NS(=O)(=O)c2cc(C(=O)N(C)C)n(C)n2)ccn1 [Example 176, 3-(N-((4-Fluoro-2-(2-isopropoxypyridin-4-yl)-6-isopropyl-phenyl)carbamoyl)sulfamoyl)-N,N,1-trimethyl-1H-pyrazole-5-carboxamide, sodium salt]	160 to 640 nM	1600 to 3200 nM
COc1cc(-c2ccc3c(c2NC(=O)NS(=O)(=O)c2cc(C(=O)N(C)C)n(C)n2)CCC3)ccn1 [Example 177, 3-(N-((5-(2-Methoxypyridin-4-yl)-2,3-dihydro-1H-inden-4-yl)carbamoyl)sulfamoyl)-N,N,1-trimethyl-1H-pyrazole-5-carboxamide, sodium Salt]	< 40 nM	< 400 nM
CNCc1cc(S(=O)(=O)NC(=O)Nc2c(-c3ccnc(OC)c3)ccc3c2CCC3)nn1C1CC1 [Example 178]	40 to 160 nM	< 400 nM
COc1cc(-c2ccc3c(c2NC(=O)NS(=O)(=O)c2cc(C4CCCN4C)n(C(C)C)n2)CCC3)ccn1 (stereo not drawn) [Example 179]	40 to 160 nM	800 to 1600 nM
CCC(c1cc(S(=O)(=O)NC(=O)Nc2c(-c3ccnc(OC)c3)ccc3c2CCC3)nn1C(C)C)N(C)C (stereo not drawn) [Example 180]	40 to 160 nM	< 400 nM
COc1cc(-c2ccc3c(c2NC(=O)NS(=O)(=O)c2cc(CN(C)C)n(C(C)C)n2)CCC3)ccn1 [Example 181]	< 40 nM	< 400 nM
CNCc1cc(S(=O)(=O)NC(=O)Nc2c3c(cc4c2CCC4)CCC3)nn1C1CC1 [Example 183]	40 to 160 nM	400 to 800 nM
CCn1nc(S(=O)(=O)NC(=O)Nc2c3c(cc4c2CCO4)CCC3)cc1CN(C)C [Example 184]	< 40 nM	400 to 800 nM
CCn1nc(S(=O)(=O)NC(=O)Nc2c3c(cc4c2OCC4)CCC3)cc1CN(C)C [Example 185]	160 to 640 nM	1600 to 3200 nM
CC(C)n1nc(S(=O)(=O)NC(=O)Nc2c3c(cc4c2CCC4)CCC3)cc1C1CCCN1C (stereo not drawn) [Example 186]	< 40 nM	400 to 800 nM
CC(C)n1nc(S(=O)(=O)NC(=O)Nc2c3c(cc4c2CCC4)CCC3)nc1CN(C)C [Example 187]	< 40 nM	800 to 1600 nM
